Molecular target: Serine/threonine-protein kinase pim-1 (Homo sapiens, UniProt P11309)
Assay: A fluorescent-labeled Pim-specific peptide substrate, was custom synthesized by American Peptide Company (Sunnyvale, Calif.). Reaction Buffer contained 10 mM HEPES, pH 7.2, 10 mM MgCl2, 0.01% Tween 20, 2 mM DTT.

Serine/threonine-protein kinase pim-1, sequence (P11309 whole entry): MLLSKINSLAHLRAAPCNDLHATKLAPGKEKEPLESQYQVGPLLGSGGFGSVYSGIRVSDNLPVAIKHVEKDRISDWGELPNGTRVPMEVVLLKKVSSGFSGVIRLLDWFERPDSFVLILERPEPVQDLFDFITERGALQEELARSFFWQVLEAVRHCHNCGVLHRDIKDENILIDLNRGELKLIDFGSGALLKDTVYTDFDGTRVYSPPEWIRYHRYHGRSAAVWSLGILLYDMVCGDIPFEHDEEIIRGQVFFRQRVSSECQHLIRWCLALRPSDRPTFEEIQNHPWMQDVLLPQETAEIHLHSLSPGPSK

SMILES | Ki
N[C@@H]1CCN(c2nc(-c3n[nH]c4cnc(-c5cccnc5)cc34)ccc2Br)C1 | 0.118 nM
c1cncc(-c2cc3c(-c4cccc(N5CCCCC5)n4)n[nH]c3cn2)c1 | 0.415 nM
CCn1cc(-c2cc3c(-c4ccc(=O)n(CC5(C(N)=O)CC5)c4)n[nH]c3cn2)cn1 | 1.41 nM
c1cncc(-c2cc3c(-c4cccc(N5CCOCC5)n4)n[nH]c3cn2)c1 | 0.262 nM
Fc1ccccc1-c1n[nH]c2cnc(-c3cccnc3)cc12 | 122 nM
Cc1n[nH]c2cnc(-c3cccc(F)c3)cc12 | 2200 nM
c1ccc(-c2n[nH]c3cnc(-c4cccnc4)cc23)cc1 | 9.65 nM
